In US9675649B2, “Disialyllacto-N-tetraose (DSLNT) or variants, isomers, analogs and derivatives thereof to prevent or inhibit bowel disease” (The Regents of the University of California, priority 2011, dated 2017) one finds ileum pathology score data, which are given here for one molecule.

This assay has as its system NEC model in neonatal rats. Briefly: Induction and evaluation of NEC in neonatal rats (formula feeding by oral gavage plus hypoxia). It is filed as in vivo, Sprague-Dawley rats. The following applies: HMO fractions/subfractions added to formula at their respective concentrations in pooled HMO at 10 mg/ml, 96 h post-partum.

Description: Instead, we tested HMO in a well-established NEC model with neonatal Sprague-Dawley rats. We induced time-pregnant rats by oxytocin and randomized their pups into the different intervention groups. Some pups were left with the dam to serve as breast-fed controls; others were formula-fed by oral gavage twice daily. All pups were exposed to hypoxia thrice daily. On day-of-life 4, we sacrificed the pups and analyzed their intestines for macroscopic and microscopic signs of NEC. The ileum was prepared for H&E staining and evaluated blindly by three independent investigators to determine NEC pathology scores. […] We then isolated HMO from pooled human milk and added them to the formula.
Each HMO fraction and subfraction was tested at concentrations that were based on their relative abundance in pooled HMO at 10 mg/mL, the average concentration in mature human milk. Assuming an average molecular weight of 1,000 g/mol for pooled HMO, 10 mg/mL is equivalent to 10 mM.
Briefly, pregnant time-dated Sprague-Dawley rats were induced at term using Pitocin (1-2 U per animal). Immediately after birth, neonates were randomized into one of the different study groups. Animals in the dam-fed (DF) group remained with the dam. All other animals were separated from the dam, housed in a temperature- and humidity-controlled incubator and orally gavaged with a special rodent formula (0.2 ml) twice daily. […] A 0.5 cm section of the terminal ileum was prepared for H&E staining per standard protocols and scored blindly by three investigators based on morphological changes that included epithelial sloughing, villus oedema, infiltration of neutrophils, apoptosis of villus enterocytes, crypt hyperplasia and misaligned nuclei in the epithelium. […] Pathology scores were plotted for each animal and the mean calculated per group. […] Differences between the groups were calculated by one-way ANOVA with the Kruskal-Wallis test and Dunn's multiple comparison test. […]

`CC(=O)N[C@H]1[C@H](O[C@H]2[C@@H](O)[C@@H](CO)O[C@@H](O[C@@H]([C@H](O)[C@@H](O)C=O)[C@H](O)CO)[C@@H]2O)O[C@H](CO[C@]2(C(=O)O)C[C@H](O)[C@@H](NC(C)=O)[C@H]([C@H](O)[C@H](O)CO)O2)[C@@H](O)[C@@H]1O[C@@H]1O[C@H](CO)[C@H](O)[C@H](O[C@]2(C(=O)O)C[C@H](O)[C@@H](NC(C)=O)[C@H]([C@H](O)[C@H](O)CO)O2)[C@H]1O` [DSLNT, Disialyllacto-N-tetraose]: the ileum pathology score entry by setting is: (listed as #2) “significantly reduced NEC”; (listed as HMO 2) 0.64±0.41; (listed as HMO #2) “significantly reduced NEC pathology scores”.
